# Like-named read-outs stand apart in the source and are kept apart here. Square brackets hold non-standard residues; d marks the D form. Ends that are not written are not given here. Peptide text beside a SMILES is read from it. Cit = NC(=O)NCCC[C@H](N)C(=O)O
# Experiments:
# HLA-DRB1*04:01 = biological target: T1, HLA-DRB1*04:01 (Homo sapiens, UniProt P01903+P01911, A100K/A169T/F76Y/I96L/K127E/L162R/M171V/N62H/P40V/Q125Y/R42H/S133A/S149N/S66Y/V115G/V209L/W38E); assay: HLA class II peptide binding, inhibition of radiolabeled peptide binding to purified MHC; conditions: for DRB1*04:01 binding capacity, WT/cit ratio: ratio of WT IC50 to Cit IC50
# T1 construct: EBV transformed homozygous cell lines were used as sources of MHC molecules; endogenous in cells; host or cells: EBV transformed homozygous cell lines
# HLA-DRB1*01:01 = biological target: T2, HLA-DRB1*01:01 (Homo sapiens, UniProt P01903+P01911, A100R/D57E/F55L/F60I/F76Y/I96L/L162R/M171V/P40L/Q125E/R42F/V115G/Y59C); assay: as above; conditions: for DRB1*01:01 binding capacity, WT/cit ratio: ratio of WT IC50 to Cit IC50
# T2 construct: EBV transformed homozygous cell lines were used as sources of MHC molecules; endogenous in cells; host or cells: EBV transformed homozygous cell lines
# [1] = read-out: DRB1*04:01 binding capacity, WT peptide (IC50 nM)
# [2] = read-out: DRB1*01:01 binding capacity, WT peptide (IC50 nM)
# [3] = wild-type (unmodified Arg) 15-mer peptide, purified HLA-DRB1*04:01, read-out: DRB1*04:01 binding capacity, WT peptide (IC50 nM)
# [4] = wild-type (unmodified Arg) 15-mer peptide, purified HLA-DRB1*01:01, read-out: DRB1*01:01 binding capacity, WT peptide (IC50 nM)
# [5] = citrullinated 15-mer peptide (X = citrulline), purified HLA-DRB1*04:01, read-out: DRB1*04:01 binding capacity, Cit peptide (IC50 nM)
# [6] = citrullinated 15-mer peptide (X = citrulline), purified HLA-DRB1*01:01, read-out: DRB1*01:01 binding capacity, Cit peptide (IC50 nM)
# [7] = >1 = citrullination increases binding
# [8] = citrullinated 15-mer (X), purified MHC, inhibition of radiolabeled peptide binding, dash = IC50 >40,000 nM, read-out: DRB1*04:01 binding capacity, Cit peptide (IC50 nM)
# [9] = citrullinated 15-mer (X), purified MHC, inhibition of radiolabeled peptide binding, dash = IC50 >40,000 nM, read-out: DRB1*01:01 binding capacity, Cit peptide (IC50 nM)
Compound,IC50 (HLA-DRB1*04:01; [3]),IC50 (HLA-DRB1*01:01; [4]),IC50 (HLA-DRB1*04:01; [5]),IC50 (HLA-DRB1*01:01; [6]),other results
CC[C@H](C)[C@H](NC(=O)[C@H](Cc1ccc(O)cc1)NC(=O)[C@H](CC(N)=O)NC(=O)[C@H](C)NC(=O)[C@H](Cc1ccccc1)NC(=O)[C@H](CCCNC(=N)N)NC(=O)[C@H](CC(=O)O)NC(=O)[C@H](CC(N)=O)NC(=O)[C@H](CC(C)C)NC(=O)[C@H](CCC(=O)O)NC(=O)[C@H](CCC(N)=O)NC(=O)[C@H](CC(C)C)NC(=O)[C@@H](N)CCC(=O)O)C(=O)N[C@@H](CC(=O)O)C(=O)N[C@@H](CCCCN)C(=O)O [Vimentin 106 WT],–,–,–,–,IC50 (HLA-DRB1*04:01; [1]): > 40000 nM; IC50 (HLA-DRB1*01:01; [2]): 3070 nM
CC[C@H](C)[C@H](N)C(=O)N[C@@H](CO)C(=O)N[C@@H](CC(C)C)C(=O)N1CCC[C@H]1C(=O)N[C@@H](CC(C)C)C(=O)N1CCC[C@H]1C(=O)N[C@@H](CC(N)=O)C(=O)N[C@@H](Cc1ccccc1)C(=O)N[C@@H](CO)C(=O)N[C@@H](CO)C(=O)N[C@@H](CC(C)C)C(=O)N[C@@H](CC(N)=O)C(=O)N[C@@H](CC(C)C)C(=O)N[C@@H](CCCNC(=N)N)C(=O)N[C@@H](CCC(=O)O)C(=O)O [Vimentin 411 WT],7000 nM,326 nM,–,–,–
CC[C@H](C)[C@H](NC(=O)[C@H](CC(=O)O)NC(=O)[C@H](CCSC)NC(=O)[C@@H]1CCCN1C(=O)[C@H](C)NC(=O)[C@@H](NC(=O)[C@H](CC(=O)O)NC(=O)[C@@H](NC(=O)[C@@H](NC(=O)[C@@H]1CCCN1C(=O)[C@H](CC(C)C)NC(=O)[C@H](CCCNC(N)=O)NC(=O)[C@H](CO)NC(=O)[C@@H](NC(=O)[C@@H](N)CCCCN)[C@@H](C)O)[C@@H](C)CC)[C@@H](C)CC)[C@@H](C)CC)C(=O)O [KTSXLPIIDIAPMDI] (H-KTS[Cit]LPIIDIAPMDI-OH),–,–,–,–,"IC50 (HLA-DRB1*04:01; citrullinated peptide as listed (X at Cit position), read-out: DRB1*04:01 binding capacity Cit peptide (IC50 nM)): 7060 nM; IC50 (HLA-DRB1*04:01; value of the wild-type (non-citrullinated) counterpart of the listed peptide, read-out: DRB1*04:01 binding capacity WT peptide (IC50 nM)): 8750 nM; IC50 (HLA-DRB1*01:01; citrullinated peptide as listed (X at Cit position), read-out: DRB1*01:01 binding capacity Cit peptide (IC50 nM)): 634 nM; IC50 (HLA-DRB1*01:01; value of the wild-type (non-citrullinated) counterpart of the listed peptide, read-out: DRB1*01:01 binding capacity WT peptide (IC50 nM)): 361 nM"
MARHLREYQDLLNVK [Vimentin 376 WT],1780 nM,270 nM,–,–,–
C[C@H](NC(=O)CNC(=O)[C@H](C)NC(=O)[C@@H]1CCCN1C(=O)CNC(=O)[C@@H](NC(=O)[C@H](CCCNC(=N)N)NC(=O)CNC(=O)[C@H](CCCNC(=N)N)NC(=O)[C@@H](N)CCC(=O)O)[C@@H](C)O)C(=O)N[C@@H](C)C(=O)NCC(=O)N[C@@H](C)C(=O)N[C@@H](CCCNC(N)=O)C(=O)NCC(=O)O [ERGRTGPAGAAGAXG] (H-ERGRTGPAGAAGA[Cit]G-OH),–,–,> 40000 nM,1120 nM,–
AINTEFKNTRTNEKV [Vimentin 91 WT],–,–,–,–,IC50 (HLA-DRB1*04:01; [1]): 1340 nM; IC50 (HLA-DRB1*01:01; [2]): 1330 nM
CC(C)C[C@H](NC(=O)CNC(=O)[C@H](CCCNC(N)=O)NC(=O)[C@@H](N)CCC(=O)O)C(=O)N[C@@H](CCCCN)C(=O)NCC(=O)N[C@@H](Cc1c[nH]cn1)C(=O)N[C@@H](CCCNC(=N)N)C(=O)NCC(=O)N[C@@H](Cc1ccccc1)C(=O)N[C@H](C(=O)NCC(=O)N[C@@H](CC(C)C)C(=O)N[C@@H](CCC(N)=O)C(=O)NCC(=O)O)[C@@H](C)O [EXGLKGHRGFTGLQG] (H-E[Cit]GLKGHRGFTGLQG-OH),–,–,> 40000 nM,96 nM,–
GPQGARGQPGVMGFP [Collagen 591 WT],2570 nM,44 nM,–,–,–
LPLVDTHSKRTLLIK [Vimentin 431 WT],5090 nM,641 nM,–,–,–
RGQPGVMGFPGPKGA [Collagen 596 WT],> 40000 nM,422 nM,–,–,–
CSCC[C@H](NC(=O)[C@H](CCC(=O)O)NC(=O)[C@H](CCCNC(=N)N)NC(=O)[C@H](CCSC)NC(=O)[C@H](CCC(N)=O)NC(=O)[C@H](CCCNC(N)=O)NC(=O)[C@H](CCC(=O)O)NC(=O)[C@H](CC(C)C)NC(=O)[C@H](CO)NC(=O)[C@H](CCC(=O)O)NC(=O)[C@H](CC(N)=O)NC(=O)[C@@H](N)[C@@H](C)O)C(=O)N[C@@H](CCC(=O)O)C(=O)N[C@@H](CCC(=O)O)C(=O)N[C@@H](CC(N)=O)C(=O)O [TNESLEXQMREMEEN] (H-TNESLE[Cit]QMREMEEN-OH; N-terminus and C-terminus assumed),–,–,> 40000 nM,> 40000 nM,"DRB1*04:01 binding capacity, WT/cit ratio (HLA-DRB1*04:01; [7]): 1.0; DRB1*01:01 binding capacity, WT/cit ratio (HLA-DRB1*01:01; [7]): 0.318"
C[C@H](NC(=O)CNC(=O)[C@H](CCCCN)NC(=O)[C@@H]1CCCN1C(=O)CNC(=O)[C@@H](N)CC(=O)O)C(=O)N[C@@H](CCCNC(N)=O)C(=O)NCC(=O)N[C@@H](CC(=O)O)C(=O)N[C@@H](CO)C(=O)NCC(=O)N1CCC[C@H]1C(=O)N1CCC[C@H]1C(=O)NCC(=O)N[C@@H](CCCNC(=N)N)C(=O)O [DGPKGAXGDSGPPGR] (H-DGPKGA[Cit]GDSGPPGR-OH; N-terminus and C-terminus assumed),–,–,> 40000 nM,> 40000 nM,"DRB1*04:01 binding capacity, WT/cit ratio (HLA-DRB1*04:01; [7]): 0.548; DRB1*01:01 binding capacity, WT/cit ratio (HLA-DRB1*01:01; [7]): 0.533"
CC(C)C[C@H](NC(=O)CNC(=O)[C@@H](NC(=O)[C@H](Cc1ccccc1)NC(=O)CNC(=O)[C@H](CCCNC(N)=O)NC(=O)[C@H](Cc1c[nH]cn1)NC(=O)CN)[C@@H](C)O)C(=O)N[C@@H](CCC(N)=O)C(=O)NCC(=O)N[C@@H](CC(C)C)C(=O)N1CCC[C@H]1C(=O)NCC(=O)N1CCC[C@H]1C(=O)N1CCC[C@H]1C(=O)O [GHXGFTGLQGLPGPP] (H-GH[Cit]GFTGLQGLPGPP-OH),–,–,2340 nM,0.65 nM,–
CC(C)C[C@H](NC(=O)[C@H](CC(N)=O)NC(=O)[C@H](CC(=O)O)NC(=O)[C@H](CCCNC(N)=O)NC(=O)[C@H](CCC(=O)O)NC(=O)[C@@H](NC(=O)[C@H](CCC(=O)O)NC(=O)[C@@H](NC(=O)[C@H](CCCNC(=N)N)NC(=O)[C@H](C)NC(=O)[C@H](CCCCN)NC(=O)[C@H](CC(=O)O)NC(=O)[C@@H](N)CC(N)=O)C(C)C)C(C)C)C(=O)N[C@@H](C)C(=O)N[C@@H](CCC(=O)O)C(=O)O [NDKARVEVEXDNLAE] (H-NDKARVEVE[Cit]DNLAE-OH),–,–,–,–,IC50 (HLA-DRB1*04:01; [8]): 1410 nM; IC50 (HLA-DRB1*01:01; [9]): 578 nM
CSCC[C@H](NC(=O)[C@H](CCCNC(=N)N)NC(=O)[C@H](CCCNC(N)=O)NC(=O)[C@H](Cc1ccc(O)cc1)NC(=O)[C@H](CO)NC(=O)[C@H](CO)NC(=O)[C@H](CO)NC(=O)[C@H](CO)NC(=O)[C@@H](NC(=O)[C@H](CO)NC(=O)[C@H](CCCNC(=N)N)NC(=O)[C@@H](NC(=O)[C@H](CO)NC(=O)[C@@H](N)CCSC)[C@@H](C)O)C(C)C)C(=O)N[C@@H](Cc1ccccc1)C(=O)O [MSTRSVSSSSYXRMF] (H-MSTRSVSSSSY[Cit]RMF-OH),–,–,–,–,IC50 (HLA-DRB1*04:01; [8]): 980 nM; IC50 (HLA-DRB1*01:01; [9]): 1080 nM
CC[C@H](C)[C@H](NC(=O)[C@H](CCC(=O)O)NC(=O)[C@H](CC(=O)O)NC(=O)[C@@H](N)CCC(N)=O)C(=O)N[C@@H](CCC(N)=O)C(=O)N[C@@H](CC(N)=O)C(=O)N[C@@H](CCSC)C(=O)N[C@@H](CCCCN)C(=O)N[C@@H](CCC(=O)O)C(=O)N[C@@H](CCC(=O)O)C(=O)N[C@@H](CCSC)C(=O)N[C@@H](C)C(=O)N[C@@H](CCCNC(N)=O)C(=O)N[C@@H](Cc1c[nH]cn1)C(=O)N[C@@H](CC(C)C)C(=O)O [QDEIQNMKEEMAXHL],–,–,3940 nM,5890 nM,–
GIAGAPGFPGPRGPP [Collagen 426 WT],> 40000 nM,239 nM,–,–,–
SKPDLTAALRDVRQQ [Vimentin 261 WT],–,–,–,–,IC50 (HLA-DRB1*04:01; [1]): > 40000 nM; IC50 (HLA-DRB1*01:01; [2]): 5190 nM
CC(C)C[C@H](NC(=O)[C@H](C)NC(=O)[C@H](CC(=O)O)NC(=O)[C@H](CC(N)=O)NC(=O)[C@H](CC(N)=O)NC(=O)[C@H](CCCNC(N)=O)NC(=O)[C@H](CC(N)=O)NC(=O)[C@H](C)NC(=O)[C@H](C)N)C(=O)N[C@@H](CCCNC(=N)N)C(=O)N[C@@H](CCC(N)=O)C(=O)N[C@@H](C)C(=O)N[C@@H](CCCCN)C(=O)N[C@@H](CCC(N)=O)C(=O)N[C@@H](CCC(=O)O)C(=O)O [AANXNNDALRQAKQE] (H-AAN[Cit]NNDALRQAKQE-OH; N-terminus and C-terminus assumed),–,–,–,–,"IC50 (HLA-DRB1*04:01; [8]): > 40000 nM; DRB1*04:01 binding capacity, WT/cit ratio (HLA-DRB1*04:01): 1.0; IC50 (HLA-DRB1*01:01; [9]): > 40000 nM; DRB1*01:01 binding capacity, WT/cit ratio (HLA-DRB1*01:01): 1.0"

# From article PMC5421785, “Citrullination only infrequently impacts peptide binding to HLA class II MHC” (PLoS ONE, 2017)
